Counter-ions that a name gives are not always drawn. Like-named read-outs stand apart in the source and are kept apart here.
Tests used:
mice = test: Mouse hot plate paradigm (analgesia); type: in vivo; settings: ip, 0.5 h, intraperitoneal, dosed 30 minutes prior to testing, hot plate 55° C., latency until the tenth jump, read-out: (MED) minimally effective dose, mouse hot plate
Protocol: An in vivo protocol was utilized to determine the effectiveness of nicotinic acetylcholine receptor ligands as analgesic agents in the mouse hot plate paradigm.
Separate groups of mice, (n=8/group) were utilized for each dose group. All drugs were administered by the intraperitoneal route of administration. Test drugs were dissolved in water to make a 6.2 mM stock solution. Animals were dosed with this solution (10 mL/kg body weight) for a 62 micromol/kg dose. Lower doses were administered similarly, following serial dilution of the stock solution in half-log increments. Animals were dosed 30 minutes prior to testing in the hot plate. The hot-plate utilized was an automated analgesia monitor (Model #AHP16AN, Omnitech Electronics, Inc. of Columbus, Ohio). The temperature of the hot plate was maintained at 55° C. and a cut-off time of 180 seconds was utilized. Latency until the tenth jump was recorded as the dependent measure. An increase in the tenth jump latency relative to the control was considered an effect.

[1] = target: T1, neuronal nicotinic acetylcholine receptors (Rattus norvegicus, UniProt P09483+P12390); test: Binding of [3H]-cytisine to neuronal nicotinic acetylcholine receptors, crude synaptic membranes from whole rat brain
T1 construct: crude synaptic membrane preparations from whole rat brain; from tissue; host or cells: whole rat brain, crude synaptic membranes
T1 sequence (P09483 31-630): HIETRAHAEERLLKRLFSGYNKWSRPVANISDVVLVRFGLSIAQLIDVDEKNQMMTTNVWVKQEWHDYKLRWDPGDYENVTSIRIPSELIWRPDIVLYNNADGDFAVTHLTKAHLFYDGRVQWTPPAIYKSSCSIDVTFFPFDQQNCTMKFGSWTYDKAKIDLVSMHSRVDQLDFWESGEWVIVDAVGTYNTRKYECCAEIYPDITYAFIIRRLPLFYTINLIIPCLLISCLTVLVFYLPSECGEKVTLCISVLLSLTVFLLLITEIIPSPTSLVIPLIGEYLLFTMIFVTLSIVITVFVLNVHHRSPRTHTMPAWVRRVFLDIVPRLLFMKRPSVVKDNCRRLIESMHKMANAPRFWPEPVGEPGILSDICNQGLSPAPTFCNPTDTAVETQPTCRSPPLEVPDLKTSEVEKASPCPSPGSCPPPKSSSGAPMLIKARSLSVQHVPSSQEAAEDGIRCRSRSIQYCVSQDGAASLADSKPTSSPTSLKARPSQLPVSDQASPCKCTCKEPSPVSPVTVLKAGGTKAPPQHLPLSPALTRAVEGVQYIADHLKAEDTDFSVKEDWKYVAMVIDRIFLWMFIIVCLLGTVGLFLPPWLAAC
T1 sequence (P12390 25-500): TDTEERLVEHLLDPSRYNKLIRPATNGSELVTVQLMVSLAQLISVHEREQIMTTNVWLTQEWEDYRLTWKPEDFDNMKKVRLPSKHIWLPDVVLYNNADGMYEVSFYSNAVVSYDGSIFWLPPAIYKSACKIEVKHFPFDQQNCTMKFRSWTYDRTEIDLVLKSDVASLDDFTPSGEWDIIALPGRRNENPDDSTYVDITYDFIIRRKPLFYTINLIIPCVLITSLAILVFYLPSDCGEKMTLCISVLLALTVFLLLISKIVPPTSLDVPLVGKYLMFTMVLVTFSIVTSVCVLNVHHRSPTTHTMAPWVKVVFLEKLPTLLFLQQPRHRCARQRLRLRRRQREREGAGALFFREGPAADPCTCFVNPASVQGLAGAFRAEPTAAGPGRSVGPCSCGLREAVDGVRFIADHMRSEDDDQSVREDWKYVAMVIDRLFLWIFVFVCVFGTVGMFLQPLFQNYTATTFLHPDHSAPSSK
Protocol: The In Vitro protocols for determination of nicotinic acetylcholine channel receptor binding potencies of ligands were determined as follows.
Washed membranes were stored at −80° C. prior to use. Frozen aliquots were slowly thawed and resuspended in 20 volumes of buffer (containing: 120 mM NaCl, 5 mM KCl, 2 mM MgCl2, 2 mM CaCl2 and 50 mM Tris-Cl, pH 7.4 @[…]). After centrifuging at 20,000×g for 15 minutes, the pellets were resuspended in 30 volumes of buffer.
The test compounds were dissolved in water to make 10 mM stock solutions. Each solution was then diluted (1:100) with buffer (as above) and further taken through seven serial log dilutions to produce test solutions from 10^−5 to 10^−11 M.
Samples were incubated for 60 minutes at 4° C., then rapidly filtered through Whatman GF/B filters presoaked in 0.5% polyethyleneimine using 3×4 mL of ice-cold buffer. The filters are counted in 4 mL of Ecolume® (ICN). Nonspecific binding was determined in the presence of 10 μM (−)-nicotine and values were expressed as a percentage of total binding. IC50 values were determined with the RS-1 (BBN) nonlinear least squares curve-fitting program and IC50 values were converted to Ki values using the Cheng and Prusoff correction (Ki=IC50/(1+[ligand]/Kd of ligand).

Male Sprague-Dawley rats = test: Formalin test (analgesia); type: in vivo; settings: Rattus norvegicus, ip, intraperitoneally 5 minutes before injection of 50 μL 5% formalin into rear paw, nocifensive behaviors, read-out: (MED) minimally effective dose, formalin test
Protocol: Another in vivo protocol utilized to determine the effectiveness of nicotinic acetylcholine receptor ligands as analgesic agents was the formalin test.
Male Sprague-Dawley rats (Charles River, Portage, Mich.) weighing 200 to 400 grams were used for all experiments. After a 20 minute period of acclimation to individual cages, 50 μL of a 5% formalin solution was injected subcutaneous into the dorsal aspect of one of the rear paws and the rats were then returned to the clear observation cages suspended above mirror panels. […] Phase 1 of the formalin test was defined as the period of time immediately after injection of formalin until 10 minutes after the formalin injection (i.e., 0-10 minutes after formalin). Phase 2 was defined as the 20 minute period from 30 to 50 minutes after formalin injection. The investigator recorded nocifensive behaviors in the injected paw of four animals during the session by observing each animal for one 15 second observation period during each 1 minute interval. Nocifensive behaviors recorded included flinching, licking or biting the injected paw. In dose-response studies, the test compound (or saline) was administered intraperitoneally 5 minutes before injection of formalin.

Question: What does the source list for `CCOc1cncc(N2C[C@H]3CNC[C@H]3C2)c1` [Example 8, cis-2-(5-ethoxy-3-pyridinyl)octahydropyrrolo[3,4-c]pyrrole dihydrochloride]?
Answer: melting point: 226 to 227 °C; minimal effective dose (mice): 6.2 µmol/kg; Ki [1]: 0.04 nM

Question: For `c1cncc(N2C[C@H]3CCCN[C@H]3C2)c1` (relative stereo) [Example 23, cis-6-(3-pyridinyl)octahydro-1H-pyrrolo[3,4-b]pyridine dihydrochloride], which minimal effective dose (Male Sprague-Dawley rats) is on record?
Answer: 0.62 µmol/kg

Question: And the minimal effective dose (mice)?
Answer: 62 µmol/kg

Question: What about the Ki [1] of the same compound?
Answer: 4.1 nM

Question: Which minimal effective dose (Male Sprague-Dawley rats) does the source give for `COc1cncc(N2C[C@H]3CNC[C@H]3C2)c1` [Example 7, cis-2-(5-methoxy-3-pyridinyl)octahydropyrrolo[3,4-c]pyrrole dihydrochloride] here?
Answer: 6.2 µmol/kg

Question: And the minimal effective dose (mice)?
Answer: 19 µmol/kg

Question: And the Ki [1]?
Answer: 0.08 nM

Question: For `CCCOc1cncc(N2C[C@H]3CNC[C@H]3C2)c1` [Example 9, cis-2-(5-propoxy-3-pyridinyl)octahydropyrrolo[3,4-c]pyrrole semi(fumarate)], which minimal effective dose (mice) is on record?
Answer: 19 µmol/kg

Question: And the Ki [1]?
Answer: 0.04 nM

Question: Which minimal effective dose (Male Sprague-Dawley rats) does the source give for `Clc1ccc(N2C[C@H]3CCCN[C@H]3C2)cn1` (relative stereo) [Example 22, cis-6-(6-chloro-3-pyridinyl)octahydro-1H-pyrrolo[3,4-b]pyridine dihydrochloride] here?
Answer: 1.9 µmol/kg

Question: What about the minimal effective dose (mice) of the same compound?
Answer: 19 µmol/kg

Question: What about the Ki [1] of the same compound?
Answer: 11 nM

Question: Which minimal effective dose (mice) does the source give for `Cc1cc(N2C[C@H]3CNC[C@H]3C2)cnc1Cl` [Example 11, cis-2-(6-chloro-5-methyl-3-pyridinyl)octahydropyrrolo[3,4-c]pyrrole dihydrochloride] here?
Answer: 6.2 µmol/kg

Question: What about the Ki [1] of the same compound?
Answer: 0.04 nM

Question: With `Clc1cc(N2C[C@H]3CCN[C@H]3C2)cnc1Cl` [Example 24, (3aR,6aR)-5-(5,6-dichloro-3-pyridinyl)octahydropyrrolo[3,4-b]pyrrole hydrochloride] as the compound, how does the minimal effective dose (Male Sprague-Dawley rats) read?
Answer: 6.2 µmol/kg

Question: What about the minimal effective dose (mice) of the same compound?
Answer: 6.2 µmol/kg

Question: And the Ki [1]?
Answer: 0.16 nM

Question: Which results are given for `CN1C[C@@H]2CN(c3cccnc3)C[C@@H]2C1.Cl` [Example 2, cis-2-methyl-5-(3-pyridinyl)octahydropyrrolo[3,4-c]pyrrole hydrochloride]?
Answer: melting point: 207 to 209 °C; Ki [1]: 26 nM

Question: Which results are given for `Cl.Cl.c1cncc(N2C[C@H]3CNC[C@H]3C2)c1` [Example 1, cis-2-(3-pyridinyl)octahydropyrrolo[3,4-c]pyrrole dihydrochloride]?
Answer: melting point: 250 to 252 °C (dec.); minimal effective dose (Male Sprague-Dawley rats): 0.62 µmol/kg; minimal effective dose (mice): 19 µmol/kg; Ki [1]: 0.12 nM

Question: For `Cl.Cl.FC(F)(F)COc1cncc(N2C[C@H]3CNC[C@H]3C2)c1` [Example 12, cis-2-[5-(2,2,2-trifluoroethoxy)-3-pyridinyl]octahydropyrrolo[3,4-c]pyrrole dihydrochloride], which melting point is on record?
Answer: 233 to 234 °C (dec.)

Question: What about the minimal effective dose (mice) of the same compound?
Answer: 62 µmol/kg

Question: What about the Ki [1] of the same compound?
Answer: 0.05 nM

Question: Which melting point does the source give for `Cl.Clc1ccc(N2C[C@H]3CNC[C@H]3C2)cn1` [Example 3, cis-2-(6-chloro-3-pyridinyl)octahydropyrrolo[3,4-c]pyrrole hydrochloride] here?
Answer: 230 to 236 °C (dec.)

Question: What about the minimal effective dose (mice) of the same compound?
Answer: 6.2 µmol/kg

Question: What about the Ki [1] of the same compound?
Answer: 0.2 nM

Question: With `Clc1ccc(N2C[C@H]3CCN[C@H]3C2)cn1` [Example 14, (3aR,6aR)-5-(6-chloro-3-pyridinyl)octahydropyrrolo[3,4-b]pyrrole dihydrochloride] as the compound, how does the minimal effective dose (Male Sprague-Dawley rats) read?
Answer: 0.62 µmol/kg

Question: And the minimal effective dose (mice)?
Answer: 1.9 µmol/kg

Question: And the Ki [1]?
Answer: 1.1 nM

Question: For `Cc1cc(N2C[C@@H]3CCN[C@@H]3C2)cnc1Cl` [Example 26, (3aS,6aS)-5-(6-chloro-5-methyl-3-pyridinyl)octahydropyrrolo[3,4-b]pyrrole hydrochloride], which minimal effective dose (mice) is on record?
Answer: 19 µmol/kg

Question: And the Ki [1]?
Answer: 0.62 nM

Question: For `Cc1cc(N2C[C@H]3CCN[C@H]3C2)cnc1Cl` [Example 27, (3aR,6aR)-5-(6-chloro-5-methyl-3-pyridinyl)octahydropyrrolo[3,4-b]pyrrole hydrochloride], which minimal effective dose (mice) is on record?
Answer: 1.9 µmol/kg

Question: What about the Ki [1] of the same compound?
Answer: 0.1 nM

Question: Which minimal effective dose (Male Sprague-Dawley rats) does the source give for `c1cncc(N2C[C@H]3CCN[C@H]3C2)c1` [Example 28, (3aR,6aR)-5-(3-pyridinyl)octahydropyrrolo[3,4-b]pyrrole dihydrochloride] here?
Answer: 1.9 µmol/kg

Question: And the minimal effective dose (mice)?
Answer: 6.2 µmol/kg

Question: What about the Ki ([1]; [3H]-CYT 1.25 nM, whole rat brain membranes, 60 minutes at 4° C., IC50 converted to Ki by Cheng and Prusoff correction, read-out: Average Ki) of the same compound?
Answer: 0.34 nM

Question: For `COc1cncc(N2C[C@H]3CCN[C@H]3C2)c1` [Example 29, (3aR,6aR)-5-(5-methoxy-3-pyridinyl)octahydropyrrolo[3,4-b]pyrrole dihydrochloride], which minimal effective dose (Male Sprague-Dawley rats) is on record?
Answer: 6.2 µmol/kg

Question: What about the minimal effective dose (mice) of the same compound?
Answer: 19 µmol/kg

Question: What about the Ki [1] of the same compound?
Answer: 0.35 nM

Question: Which minimal effective dose (Male Sprague-Dawley rats) does the source give for `N#Cc1cncc(N2C[C@H]3CCN[C@H]3C2)c1` [Example 37, 5-((3aR,6aR)-hexahydropyrrolo[3,4-b]pyrrol-5(1H)-yl)nicotinonitrile] here?
Answer: 6.2 µmol/kg

Question: And the Ki [1]?
Answer: 1.2 nM

Question: What does the source list for `Clc1ccc(N2C[C@@H]3CCN[C@@H]3C2)cn1` [Example 15, (3aS,6aS)-5-(6-chloro-3-pyridinyl)octahydropyrrolo[3,4-b]pyrrole dihydrochloride]?
Answer: minimal effective dose (Male Sprague-Dawley rats): > 6.2 µmol/kg; minimal effective dose (mice): 19 µmol/kg; Ki [1]: 6.3 nM

Question: With `Cl.Cl.c1ccc2ncc(N3C[C@H]4CNC[C@H]4C3)cc2c1` [Example 5, cis-2-(3-quinolinyl)octahydropyrrolo[3,4-c]pyrrole dihydrochloride] as the compound, how does the melting point read?
Answer: > 260 °C

Question: And the Ki [1]?
Answer: 1.7 nM

Question: Which results are given for `N#Cc1cncc(N2C[C@H]3CNC[C@H]32)c1` [Example 74, 5-[(1R,5S)-3,6-diazabicyclo[3.2.0]hept-6-yl]nicotinonitrile bis(4-methylbenzenesulfonate)]?
Answer: minimal effective dose (Male Sprague-Dawley rats): 1.9 µmol/kg; Ki [1]: 3.2 nM

Question: Which minimal effective dose (Male Sprague-Dawley rats) does the source give for `c1cncc(N2CC[C@H]3CN[C@H]3C2)c1` (relative stereo) [Example 33, (cis)-3-(3-pyridinyl)-3,8-diazabicyclo[4.2.0]octane tris(4-methylbenzenesulfonate)] here?
Answer: 0.62 µmol/kg

Question: And the minimal effective dose (mice)?
Answer: 1.9 µmol/kg

Question: And the Ki [1]?
Answer: 0.02 nM

Question: With `COc1cc(N2C[C@H]3CNC[C@H]3C2)cnc1Cl` [Example 10, cis-2-(6-chloro-5-methoxy-3-pyridinyl)octahydropyrrolo[3,4-c]pyrrole dihydrochloride] as the compound, how does the minimal effective dose (Male Sprague-Dawley rats) read?
Answer: 1.9 µmol/kg

Question: What about the minimal effective dose (mice) of the same compound?
Answer: 6.2 µmol/kg

Question: And the Ki [1]?
Answer: 0.03 nM

Question: With `Clc1ccc(N2C[C@H]3CCN[C@H]3C2)cn1` (relative stereo) [Example 13, cis-5-(6-chloro-3-pyridinyl)octahydropyrrolo[3,4-b]pyrrole hydrochloride] as the compound, how does the minimal effective dose (Male Sprague-Dawley rats) read?
Answer: 0.62 µmol/kg

Question: And the minimal effective dose (mice)?
Answer: 6.2 µmol/kg

Question: And the Ki [1]?
Answer: 1.5 nM
